# In PubChem BioAssay (NCI):
#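 Exposure lasted 48 hours, with cells grown in 96-well plates and compounds tested at five concentrations. TGI is the concentration that stops growth completely.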
# Columns and labels:
# Test in all cases: growth of human tumour cells (NCI), 48 h
# 786-0 renal = tested on: 786-0 renal
# A549 NSCLC = tested on: A549 NSCLC
# CCRF-CEM leukemia = tested on: CCRF-CEM leukemia
# DU-145 prostate = tested on: DU-145 prostate
# EKVX NSCLC = tested on: EKVX NSCLC
# MALME-3M melanoma = tested on: MALME-3M melanoma
# MDA-MB-435 = tested on: MDA-MB-435
# MDA-N = tested on: MDA-N
# NCI-H23 lung = tested on: NCI-H23 lung
# NCI-H522 lung = tested on: NCI-H522 lung
# OVCAR-3 ovarian = tested on: OVCAR-3 ovarian
# OVCAR-5 ovarian = tested on: OVCAR-5 ovarian
# SF-268 CNS = tested on: SF-268 CNS
# SNB-19 CNS = tested on: SNB-19 CNS
# SK-MEL-2 melanoma = tested on: SK-MEL-2 melanoma
Compound,TGI (786-0 renal) [µM],TGI (A549 NSCLC) [µM],TGI (CCRF-CEM leukemia) [µM],TGI (DU-145 prostate) [µM],TGI (EKVX NSCLC) [µM],TGI (MALME-3M melanoma) [µM],TGI (MDA-MB-435) [µM],TGI (MDA-N) [µM],TGI (NCI-H23 lung) [µM],TGI (NCI-H522 lung) [µM],TGI (OVCAR-3 ovarian) [µM],TGI (OVCAR-5 ovarian) [µM],TGI (SF-268 CNS) [µM],TGI (SNB-19 CNS) [µM],TGI (SK-MEL-2 melanoma) [µM]
Cn1c2ccccc2c2cc(N3CCCC3)c3c(c21)C(=O)N(c1ccccc1)C3=O,95.5,> 100,> 100,> 100,> 100,> 100,> 100,> 100,> 100,> 100,> 100,> 100,> 100,> 100,
C=C(C)[C@H]1C2=CC(C)=C(O2)[C@@H](O)[C@H](C(=C)C)CCC2=C[C@H]1OC2=O,> 100,> 100,> 100,> 100,> 100,> 100,> 100,> 100,,> 100,> 100,> 100,> 100,> 100,> 100
Cc1c(Cl)cccc1N=NC(=O)NNc1cccc(Cl)c1C,37.7,45.2,42.6,28.3,,30.8,34.5,31,33.2,39.8,31.4,27.1,31.8,41.9,26.4
O=C(CN1CCCCC1)Nc1ccc2c(c1)C1Oc3ccccc3CC1CO2 (configuration not stated),45.8,> 100,> 100,> 100,53.9,32.2,38.4,36.7,> 100,36.3,64.9,38.2,> 100,,35.5
O=C(N/N=C\c1cccc2ccccc12)Nc1cccc2ccccc12,28.1,> 100,> 100,> 100,> 100,> 100,24.3,21.2,> 100,> 100,,> 100,> 100,48.9,> 100
O=c1[nH]nc(Nc2ccccc2)c2nnn(C3CCCCC3)c12,> 100,> 100,> 100,> 100,> 100,> 100,> 100,> 100,> 100,,> 100,> 100,,> 100,> 100
N#Cc1cc(Sc2ccc(N)c(C#N)c2)ccc1N,43.3,> 100,41.3,89.6,50.5,36.4,12.6,24.2,,,> 100,> 100,59,> 100,> 100
Cc1nc2c(cc1OCc1ccccc1)C(=O)C1=C(C2=O)C2OC(=O)CC2OC1(C)C (configuration not stated),1.07,21.2,0.451,3.09,3.63,2.25,1.8,1.75,2.32,0.387,,2.16,,5.65,
CCOC(=O)CCN1C(=O)C(=O)N(c2ccc(OC)cc2)C1=S,> 100,> 100,> 100,> 100,> 100,> 100,> 100,> 100,> 100,> 100,,> 100,> 100,> 100,> 100
CCCCSC1=N/C(=C\c2ccc(N(C)C)cc2)C(=O)N1,42.9,75.2,> 100,> 100,76.5,> 100,> 100,> 100,> 100,73.9,73.1,> 100,> 100,> 100,
CCC(CC)(CO)CNc1cc(Cl)nc(N)n1,> 100,> 100,> 100,> 100,> 100,> 100,> 100,> 100,> 100,> 100,> 100,> 100,> 100,,> 100
Cc1ccc(S(=O)(=O)N/N=C2\CC3CC4CCC2C4C3)cc1 (configuration not stated),> 100,> 100,> 100,> 100,> 100,> 100,> 100,> 100,> 100,> 100,> 100,> 100,> 100,,
O=c1[nH]nc(Cc2ccccc2)n1/N=C/c1cccnc1,> 100,> 100,> 100,> 100,> 100,> 100,> 100,> 100,> 100,> 100,> 100,> 100,> 100,> 100,
